Results from patent US20070293539A1, “Methods for the treatment of synucleinopathies” (priority 2004, published 2007).
“Also recorded” adds a separate entry of the source.

Columns and labels:
[1] = system: α-synuclein; experiment: α-synuclein accumulation in SH-SY5Y cells infected with α-synuclein-expressing adenovirus, Western blotting normalized against actin; format: cell-based
Description: (§1) Viral Infection: Viral infection and MTT assay in SH-SY5Y cells: The viruses were amplified and purified according to the published procedure. SH-SY5Y cells were grown on 100 mm petri-dishes and induced with 100 nM RA for 3-5 days before the virus infection with M.I.O at 75. Viruses were diluted with DPBS to desired M.I.O. After four hours of incubation, 10 ml growth medium was added. On the second day, cells were splitted into 96-well plates and treated with compounds for next 48 hours. The growth medium in each well was replaced with growth medium with 5 ug/ml MTT. Medium was removed after three hours incubation, and 200 ul isopropyl (0.04N HCl) was added into each well. The signal was read at 570 nm.
(§2) Western Blotting: Following transfer of SDS gels onto NC membrane, all membranes were blocked with 5% non-fat milk in TBST (50 mM Tris-HCl pH7.4, 150 mM NaCl, 0.1% Tween 20), and incubated with primary antibody overnight with 1% BSA in TBST, washed three times with TBST, and incubated with horseradish peroxidase-conjugated secondary antibody for 1 hour (Promega). Bound antibodies were detected using enhanced chemiluminascence (NEM).
Since α-synuclein neurotoxicity is dose-dependent, it follows that accumulation of α-synuclein, caused by UCH-L1 farnesylation, should promote its toxicity. […] (F) Cell viability was assessed by the amount of metabolic activity using MTT assay. […]

[2] = system: SH-SY5Y cells infected by α-synuclein-expressing adenovirus; experiment: α-synuclein toxicity in SH-SY5Y cells infected by α-synuclein-expressing adenovirus (Trypan blue viable cell counting, MTT assay); format: cell-based; conditions: SH-SY5Y cells overexpressing α-synuclein via adenoviral vector, compared to DMSO
Description: as §1
Viable cell counting: At stated time poins, SH-SY5Y cells were trypsinized with 100 ul trypsin-EDTA for 1 minute and neutralized with 400 ul growth medium. Cell suspension was made up by mixing 0.2 ml of cells in growth medium, 0.3 ml of HBSS and 0.5 ml of 0.4% Trypan Blue solution. Viable cell numbers were counted by standard cell counting chamber.
Since α-synuclein neurotoxicity is dose-dependent, it follows that accumulation of α-synuclein, caused by UCH-L1 farnesylation, should promote its toxicity. […] These cells express high endogenous levels of UCH-L1. […] The unit of y-axis is 10^5/ml. (F) Cell viability was assessed by the amount of metabolic activity using MTT assay. […]

[3] = system: α-synuclein; experiment: α-synuclein degradation assay in transfected COS-7 cells, quantitative Western blotting; format: cell-based
Source text: Plasmids: C220S cDNA was generated by PCR site-specific mutagenesis. For the PCR, the 5′ primer is uchforw SEQ ID NO: 1 ([…]), and 3′ primer is uchc220s SEQ ID NO:2 (CTAAGA […]). Wt UCH-L1 served as the template. The PCR fragment was inserted into pcDNA vector. For S18YC220S mutant, S18Y UCH-L1 served as the template in PCR. For the FLAG tagged UCH-L1, the 5′ primer is FLAGuchforw SEQ ID NO: 3 ([…] CGATGGAG), and the 3′ primer is uchrev SEQ ID NO: 4 ([…]). Wt UCH-L1 or C220S served as the template. PCR fragment was purified and inserted into pcDNA vector. For the FLAG tagged UCH-L3, the 5′ primer is L3HindIII SEQ ID NO: 5 (CTAAAGCTTATGGACTAC […]), the 3′ primer is L3XhoISAA SEQ ID NO: 6 ([…]). […] After 24 hours of incubation, the cells were lysed with Tris buffer (50 mM Tris, 2% SDS, 0.1% NP-40), and subjected to SDS-PAGE, followed by quantitative Western blotting.
as §2, with “(NEM). […]” for “(NEM).”

[4] = system: UCH-L1; experiment: 2D electrophoresis and Western blotting of membrane-bound and cytosolic UCH-L1 in SH-SY5Y cells; format: cell-based; conditions: compared to cells treated with DMSO
Description: 2D electrophoresis: For the isolation of total cellular protein, cultured SH-SY5Y cells maintained as described above were rinsed with ice-cold PBS. Cells were lysed in 1 ml dSDS buffer (50 mM Tris-HCl, pH 8.0 0.1% SDS) supplemented with protease inhibitor cocktail. Lysates were boiled for 3 min, and were treated with Dnase and Rnase as described. Lysates were precipitated with ice-cold acetone for at least 2 hours, and pellets were resuspended in 2D sample buffer (8M urea, 0.5% CHAPS, 0.2% DTT, 0.5% IPG buffer, 0.002% bromophenol blue). 2D electrophoresis was carried out according to manufacture's protocol (Amersham Life Science). 7 cm pH 4-7 strips were used. For SH-SY5Y membrane fraction, culture SH-SY5Y cells were rinsed with cold PBS and harvested with lysis buffer (50 mM Tris-HCl, pH 8.0, 1 mM ZnAc2, 250 mM sucrose). Lysate was passed through 25G needles for several times and spun at 1000 g for 5 min. […]
as §2, with “(NEM). […]” for “(NEM).”

[5] = system: UCH-L1; experiment: total amount and turnover of UCH-L1 in SH-SY5Y cells (pulse-chase experiment not shown); format: cell-based
[6] = human, in vivo; cited from earlier work
[7] = taken in a low dose; cited from earlier work

COC(=O)[C@H](CCSC)NC(=O)c1ccc(NC[C@@H](N)CS)cc1-c1ccccc1 [FTI-277]
amount of α-synuclein [1]: reducing the amount of α-synuclein accumulation; also recorded: reduced the amount of α-synuclein
α-synuclein toxicity (loss of cells) [2]: inhibits synuclein toxicity; also recorded: rescued α-synuclein toxicity; also recorded: significantly decreased loss of cells
synuclein level ([3]; COS-7 cells): lowers synuclein level
amount of cytosolic UCH-L1 [4]: without affecting
amount of membrane bound UCH-L1 [4]: significant decrease; also recorded: decreased the amount of the membrane-associated species; also recorded: reducing the amount of membrane-associated protein
total amount of UCH-L1 [5]: reduced the total amount of UCH-L1
rate of turnover of UCH-L1 ([5]; pulse-chase experiment not shown): increased its rate of turnover

CC(=O)N[C@@H](CSC(=O)[C@]1([C@@H](O)C(C)C)NC(=O)[C@H](C)[C@@H]1O)C(=O)O [lactacysteine]
accumulation of α-synuclein ([3]; transfected COS-7 cells, 16 kDa α-synuclein normalized against actin): 100%

N[C@@H](Cc1ccc(O)c(O)c1)C(=O)O [levodopa]
patients that do not respond [6]: About 15%

C#CCN(C)[C@H](C)Cc1ccccc1 [selegiline]
delay of the need for levodopa [7]: roughly three
